Broadly, the IC50 is the point on the concentration scale where inhibition reaches its midpoint.

The target of one assay is T1, CCR2 (Homo sapiens, UniProt P41597).
T1 construct: (leukophoresis pack); host or cells: human peripheral blood mononuclear cells (PBMCs) from a normal human leukophoresis pack
T1 sequence (P41597 whole entry): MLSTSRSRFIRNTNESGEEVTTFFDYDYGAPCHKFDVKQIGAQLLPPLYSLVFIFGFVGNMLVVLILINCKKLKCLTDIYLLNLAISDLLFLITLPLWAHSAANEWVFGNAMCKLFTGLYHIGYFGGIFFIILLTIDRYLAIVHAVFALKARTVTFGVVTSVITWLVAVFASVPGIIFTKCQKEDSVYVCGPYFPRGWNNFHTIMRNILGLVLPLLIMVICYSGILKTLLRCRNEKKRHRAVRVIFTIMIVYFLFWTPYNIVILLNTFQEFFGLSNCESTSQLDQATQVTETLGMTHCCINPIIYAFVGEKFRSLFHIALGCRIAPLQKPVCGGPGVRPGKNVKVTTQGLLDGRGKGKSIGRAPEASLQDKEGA
The assay can be described thus: hCCR2 (125-I hMCP-1) small molecule binding assay on human PBMCs. The conditions noted are these: 125I-MCP-1, human PBMCs, 30 min preincubation; read-out: IC50 (nM) 30 min preinc. The text has this:
The CCR2 antagonist activity of compounds of the invention can be reported as the inhibitor concentration required for 50% inhibition (IC50 values) of specific binding in receptor binding assays using 125I-labeled MCP-1, as ligand, and Peripheral Blood Mononuclear Cells (PBMCs) prepared from normal human whole blood via density gradient centrifugation. Specific binding is defined as the total binding (e.g., total cpm on filters) minus the non-specific binding. Non-specific binding is defined as the amount of cpm still defected in the presence of excess unlabeled competitor (e.g., MCP-1),
Human PBMCs were used to test compounds of the invention in a binding assay. For example, 200,000 to 500,000 cells were incubated with 0.1 to 0.2 nM 125I-labeled MCP-1, with or without unlabeled competitor (10 nM MCP-1) or various concentrations of compounds to be tested. 125I-labeled MCP-1, were prepared by suitable methods or purchased from commercial vendors (Perkin Elmer, Boston Mass.). The binding reactions were performed in 50 to 250 μL of a binding buffer consisting of […] pH 7.2, and 0.1% BSA (bovine serum albumin), for 30 minutes at room temperature. The binding reactions were terminated by harvesting the membranes by rapid filtration through glass fiber filters (Perkin Elmer) which was presoaked in 0.3% polyethyleneimine or Phosphate Buffered Saline (PBS). The filters were rinsed with approximately 600 μL of binding buffer containing, 0.5 M NaCl or PBS, then dried, and the amount of bound radioactivity was determined by counting on a Gamma Counter (Perkin Elmer).
More specifically, the following assay may be employed to determine IC50 values for the compounds of the present invention.
hCCR2 (125-I hMCP-1) Small Molecule Binding Assay
Normal human leukophoresis pack contents, available from Biological Specialty Corporation, Colmar, Pa., is diluted 1:1 with PBS, divided into 50 ml conical tubes (preferably less than 40 mls per tube), and underlayed with 10 mls of Ficoll-Paque PLUS (GE Healthcare 17-1440-02). The tubes are centrifuged at 2800 rpm in a clinical centrifuge at room temperature for 30 mins, with no brake. The plasma layer is suctioned, and the buffycoat layer is collected. The collected buffycoat layer is washed twice with 50 mls PBS, and centrifuged at 1400 rpm with brake. The cells are counted. The cells are then diluted to 1×10^7 cells per ml in binding buffer.
96 well plates (such as, for example, Millipore MultiScreen96 plates) are pre-wet with about 100 μl binding buffer (RPMI+0.1% BSA+20 mM HEPES), and blotted just prior to compound addition.
5 μl of 50 μM test compounds in 100% DMSO are dotted onto U-bottom polypropylene 96-well plates.
245 μl per well of Binding Buffer is added to each well for 1 μM compound concentration in 2% DMSO.
50 μl of 1 μM compound is transferred to pre-wetted Millipore plates. 50 μl per well of 1×10E7 cells per ml of freshly prepared human PBMCs are added.
The samples are pre-incubated at room temperature for 30 minutes or 1 hour.
50 μl of 450 pM 125-I-hMCP-1 (Perkin-Elmer/NEN cat#NEX332025UC) is added for a final concentration 125-I-hMCP-1 of 150 pM per well.
The final test compound concentration is 0.333 uM in 150 μl total volume with 0.67% DMSO in all wells. Controls for this assay consist of 0% inhibition and 100% inhibition with 1 uM hMCP-1 (saturating conditions). All wells are run in duplicate. Controls may be in replicates of eight.
The samples are incubated at room temperature for 30 minutes.
The buffer is suctioned through the Millipore plates. The plates are washed three times with Wash Buffer (PRMI+0.1% BSA+20 mM HEPES+ 0.4 M NaC).
The plate underdrain is removed. The plate filters are allowed to dry. The filters are then punched out into plastic tubes.
Finally, the sample is counted an a Gamma Counter.
All IC50 plates were repeated for an n=2.
The following table summarizes the IC50 values identified through the described assay.
As for `CO[C@@H]1COCC[C@@H]1N[C@@H]1CC[C@@](C(=O)N2C[C@@H]3C[C@H]2CN3c2nccc(C(F)(F)F)n2)(C2(O)CCC2)C1` [Example 47, 1,5-anhydro-2,3-dideoxy-3-{[(1R,3S)-3-(1-hydroxycyclobutyl)-3-({(1S,4S)-5-[4-(trifluoromethyl)pyrimidin-2-yl]-2,5-diazabicyclo[2.2.1]hept-2-yl}carbonyl)cyclopentyl]amino}-4-O-methyl-D-erythro-pentitol], the IC50 came to 6.16 nM. With `CO[C@@H]1COCC[C@@H]1N[C@@H]1CC[C@@](C(=O)N2C[C@@H]3C[C@H]2CN3c2ccnc(C(F)(F)F)n2)(C(C)(C)O)C1` [Example 56, 1,5-anhydro-2,3-dideoxy-3-{[3-(1-hydroxy-1-methylethyl)-3-({5-[2-(trifluoromethyl)pyrimidin-4-yl]-2,5-diazabicyclo[2.2.1]hept-2-yl}carbonyl)cyclopentyl]amino}-4-O-methylpentitol], the IC50 was found to be 32.8 nM. On the same count and under the same terms, then `CO[C@@H]1COCC[C@@H]1N[C@@H]1CC[C@](CC(F)(F)F)(C(=O)N2C[C@@H]3C[C@H]2CN3c2nccc(C(F)(F)F)n2)C1` [Example 35, 1,5-anhydro-2,3-dideoxy-4-O-methyl-3-{[(1R,3S)-3-(2,2,2-trifluoroethyl)-3-({(1S,4S)-5-[4-(trifluoromethyl)pyrimidin-2-yl]-2,5-diazabicyclo[2.2.1]hept-2-yl}carbonyl)cyclopentyl]amino}-D-erythro-pentitol], with 28.4 nM; and `CO[C@@H]1COCC[C@@H]1N[C@@H]1CC[C@@](C(=O)N2C[C@@H]3C[C@H]2CN3c2ccnc(C(F)(F)F)c2)(C(C)(C)O)C1` [Example 58, 1,5-anhydro-2,3-dideoxy-3-{[3-(1-hydroxy-1-methylethyl)-3-({5-[2-(trifluoromethyl)pyridin-4-yl]-2,5-diazabicyclo[2.2.1]hept-2-yl}carbonyl)cyclopentyl]amino}-4-O-methylpentitol], with 38.5 nM; and `CC[C@]1(C(=O)N2C[C@@H]3C[C@H]2CN3c2nccc(C(F)(F)F)n2)CC[C@@H](N[C@H]2CCOC[C@H]2OC)C1` [Example 2, 1,5-anhydro-2,3-dideoxy-3-{[(1R,3S)-3-ethyl-3-({(1S,4S)-5-[4-(trifluoromethyl)pyrimidin-2-yl]-2,5-diazabicyclo[2.2.1]hept-2-yl}carbonyl)cyclopentyl]amino}-4-O-methyl-D-erythro-pentitol], with 3.16 nM. On to `CO[C@@H]1COCC[C@@H]1N[C@@H]1CC[C@@](C(=O)N2C[C@@H]3C[C@H]2CN3c2cccc(C(F)(F)F)n2)(C2(O)CCC2)C1` [Example 45, 1,5-anhydro-2,3-dideoxy-3-{[(1R,3S)-3-(1-hydroxycyclobutyl)-3-({(1S,4S)-5-[6-(trifluoromethyl)pyridin-2-yl]-2,5-diazabicyclo[2.2.1]hept-2-yl}carbonyl)cyclopentyl]amino}-4-O-methyl-D-erythro-pentitol], for which the IC50 came to 25.3 nM. With `CO[C@@H]1COCC[C@@H]1N[C@@H]1CC[C@@](C(=O)N2C[C@@H]3C[C@H]2CN3c2cc(C(F)(F)F)ccn2)(C(C)(C)O)C1` [Example 52, 1,5-anhydro-2,3-dideoxy-3-{[3-(1-hydroxy-1-methylethyl)-3-({5-[4-(trifluoromethyl)pyridin-2-yl]-2,5-diazabicyclo[2.2.1]hept-2-yl}carbonyl)cyclopentyl]amino}-4-O-methylpentitol], the IC50 was 5.4 nM. As for `CO[C@@H]1COCC[C@@H]1N[C@@H]1CC[C@@](C(=O)N2C[C@@H]3C[C@H]2CN3c2cc(C(F)(F)F)ccn2)(C2CCOC2)C1` (stereo partly drawn) [Example 60, ((1S,3R)-3-((3S,4S)-3-methoxy-tetrahydro-2H-pyran-4-ylamino)-1-(tetrahydrofuran-3-yl)cyclopentyl)((1S,4S)-5-(4-(trifluoromethyl)pyridin-2-yl)-2,5-diaza-bicyclo[2.2.1]heptan-2-yl)methanone], the IC50 was found to be 2.4 nM.

In the case of `CO[C@@H]1COCC[C@@H]1N[C@@H]1CC[C@@](C(=O)N2C[C@@H]3C[C@H]2CN3c2cc(C(F)(F)F)ccn2)(C2CCOC2)C1` (stereo partly drawn) [Example 61, ((1S,3R)-3-((3S,4S)-3-methoxy-tetrahydro-2H-pyran-4-ylamino)-1-(tetrahydrofuran-3-yl)cyclopentyl)((1S,4S)-5-(4-(trifluoromethyl)pyridin-2-yl)-2,5-diaza-bicyclo[2.2.1]heptan-2-yl)methanone], the IC50 was found to be 5.9 nM.

For the compound `CC[C@]1(C(=O)N2C[C@@H]3C[C@H]2CN3c2ccnc(C(F)(F)F)c2)CC[C@@H](N[C@H]2CCOC[C@H]2OC)C1` [Example 7, 1,5-anhydro-2,3-dideoxy-3-{[(1R,3S)-3-ethyl-3-({(1S,4S)-5-[2-(trifluoromethyl)pyridin-4-yl]-2,5-diazabicyclo[2.2.1]hept-2-yl}carbonyl)cyclopentyl]amino}-4-O-methyl-D-erythro-pentitol], the IC50 worked out at 17.1 nM. As for `CO[C@@H]1COCC[C@@H]1N[C@@H]1CC[C@](CC(F)(F)F)(C(=O)N2C[C@@H]3C[C@H]2CN3c2cccc(C(F)(F)F)n2)C1` [Example 36, 1,5-anhydro-2,3-dideoxy-4-O-methyl-3-{[(1R,3S)-3-(2,2,2-trifluoroethyl)-3-({(1S,4S)-5-[6-(trifluoromethyl)pyridin-2-yl]-2,5-diazabicyclo[2.2.1]hept-2-yl}carbonyl)cyclopentyl]amino}-D-erythro-pentitol], the IC50 was 12.6 nM.

On to `CO[C@@H]1COCC[C@@H]1N[C@@H]1CC[C@@](C(=O)N2C[C@@H]3C[C@H]2CN3c2cc(C(F)(F)F)ccn2)(C2(O)CCC2)C1` [Example 46, 1,5-anhydro-2,3-dideoxy-3-{[(1R,3S)-3-(1-hydroxycyclobutyl)-3-({(1S,4S)-5-[4-(trifluoromethyl)pyridin-2-yl]-2,5-diazabicyclo[2.2.1]hept-2-yl}carbonyl)cyclopentyl]amino}-4-O-methyl-D-erythro-pentitol], for which the IC50 worked out at 3.19 nM.

On to `CC[C@]1(C(=O)N2C[C@@H]3C[C@H]2CN3c2cc(C(F)(F)F)ncn2)CC[C@@H](N[C@H]2CCOC[C@H]2OC)C1` [Example 3, 1,5-anhydro-2,3-dideoxy-3-{[(1R,3S)-3-ethyl-3-({(1S,4S)-5-[6-(trifluoromethyl)pyrimidin-4-yl]-2,5-diazabicyclo[2.2.1]hept-2-yl}carbonyl)cyclopentyl]amino}-4-O-methyl-D-erythro-pentitol], for which the IC50 was 17.8 nM. On the same count and under the same terms, to `CO[C@@H]1COCC[C@@H]1N[C@@H]1CC[C@@](C(=O)N2C[C@@H]3C[C@H]2CN3c2cc(F)cc(C(F)(F)F)c2)(C2CCOC2)C1` (some centres unmarked) [Example 66] belongs 1.7 nM.

The assay is the same for the next values; noted with them: 125I-MCP-1, human PBMCs, 1 hr preincubation; read-out: IC50 (nM) 1 hr preinc.
Regarding `CO[C@@H]1COCC[C@@H]1N[C@@H]1CC[C@](CC(F)(F)F)(C(=O)N2C[C@@H]3C[C@H]2CN3c2nccc(C(F)(F)F)n2)C1` [Example 35, 1,5-anhydro-2,3-dideoxy-4-O-methyl-3-{[(1R,3S)-3-(2,2,2-trifluoroethyl)-3-({(1S,4S)-5-[4-(trifluoromethyl)pyrimidin-2-yl]-2,5-diazabicyclo[2.2.1]hept-2-yl}carbonyl)cyclopentyl]amino}-D-erythro-pentitol], the IC50 came out at 5.52 nM. The same measure, in the same setting: to `CO[C@@H]1COCC[C@@H]1N[C@@H]1CC[C@](CC(F)(F)F)(C(=O)N2C[C@@H]3C[C@H]2CN3C(=O)OC(C)(C)C)C1` [Example 44, 1,5-anhydro-3-{[(1R,3S)-3-{[(1S,4S)-5-(tert-butoxycarbonyl)-2,5-diazabicyclo[2.2.1]hept-2-yl]carbonyl}-3-(2,2,2-trifluoroethyl)cyclopentyl]amino}-2,3-dideoxy-4-O-methyl-D-erythro-pentitol] belongs 8.1 nM; to `CO[C@@H]1COCC[C@@H]1N[C@@H]1CC[C@](CC(F)(F)F)(C(=O)N2C[C@@H]3C[C@H]2CN3c2cccc(C(F)(F)F)n2)C1` [Example 36, 1,5-anhydro-2,3-dideoxy-4-O-methyl-3-{[(1R,3S)-3-(2,2,2-trifluoroethyl)-3-({(1S,4S)-5-[6-(trifluoromethyl)pyridin-2-yl]-2,5-diazabicyclo[2.2.1]hept-2-yl}carbonyl)cyclopentyl]amino}-D-erythro-pentitol], 2.19 nM.

For the origin of these results see US8946413B2 (Pfizer Inc., priority 2008, dated 2015).
